Measurements reported in patent publication US6083941A, “Inhibition of NMDA receptor activity by pregnenolone sulfate derivatives” (Trustees of Boston University, priority 1998, dated 2000).
Where a name gives a salt, the structure may show the parent alone. Read-outs that look alike come from different tables or passages of the source.

Columns and labels:
kainate receptors = assay: Whole cell patch clamp, kainate-induced current in cultured chick spinal cord neurons; assay type: cell-based; conditions: 100 μM steroid; -70 mV
Procedure: (§1) Cultures of dissociated spinal cord neurons were prepared as previously described (Farb, D. H., et al., J. Cell Biol., 80:651-661 (1979)). Briefly, the dissociated cells from 7-day chick embryos were plated on collagen-coated 35-mm tissue culture dishes in Eagle's minimum essential medium supplemented with 2.4 mM glutamine, 10% (v/v) heat-inactivated horse serum, 5% (v/v) chick embryo extract and antibiotics. Cultures were maintained in a humidified atmosphere of 5% CO2, 95% air at 37°. Cytarabine (1 μM) was added to the culture medium after 36 hr. of the initial plating to inhibit the proliferation of non-neuronal cells. One day later, this medium was replaced with a similar medium supplemented with 20.5 mM glucose, 19 mM KCl, and 2.5% chick embryo extract. Fresh medium was added twice weekly. Cultured neurons were used in experiments within 2-4 weeks after plating.
(§2) Experiments were carried out in 35-mm tissue culture dishes on the stage of an inverted phase contrast microscope. Whole cell currents were recorded by the whole cell variant of the patch clamp technique (Hamill, O. P., et al., Pfagers Arch. 891:85-100 (1981)). Patch electrodes had tip openings of about […] and resistances of 3-8 M.OMEGA. using an intracellular solution comprised of the following (in mM): 140 CsCl, 11 EGTA, and 10 HEPES (pH adjusted to 7.2 with CsOH). […]

NMDA receptor = assay: Whole cell patch clamp, NMDA-induced current in cultured chick spinal cord neurons; assay type: cell-based; conditions: for inhibition of the NMDA response by extracellular steroid: 100 μM extracellular; for IC50: read-out: IC50 for inhibition of the NMDA response
Procedure: as §1
Experiments were carried out in 35-mm tissue culture dishes on the stage of an inverted phase contrast microscope. Whole cell currents were recorded by the whole cell variant of the patch clamp technique (Hamill, O. P., et al., Pfagers Arch. 891:85-100 (1981)). Patch electrodes had tip openings of about […] and resistances of 3-8 M.OMEGA. using an intracellular solution comprised of the following (in mM): 140 CsCl, 11 EGTA, and 10 HEPES (pH adjusted to 7.2 with CsOH). In experiments in which a high concentration of glycine was used, the intracellular solution was replaced with a low chloride (10 mM) pipette solution. This solution contained the following (in mM): 140 potassium gluconate, 10 KCl, 8 sodium gluconate, 11 EGTA, and 10 HEPES (pH adjusted to 7.2 with KOH). To prevent a marked run-down of NMDA-induced current at high NMDA concentrations, 4 mM potassium ATP was included in the intracellular solution. The bath solution contained the following (in mM): 150 NaCl, 4 KCl, 1 CaCl2, and 10 HEPES (pH adjusted to 7.2 with NaOH). No glycine was added to the solutions containing NMDA, because no additional glycine was required to obtain a robust NMDA response, and there was no effect of a maximal concentration (10 μM) of glycine on 5β3αS inhibition of the NMDA response. All experiments were performed at room temperature (23-25° C.).
Recordings were made using an Axopatch 1B patch clamp apparatus (Axon Instruments, Burlingame, Calif.). Cells with series resistances greater than 10 M.OMEGA. were rejected. After partial compensation, series resistances were between 3.5 and 6 M.OMEGA.. The holding potential was maintained at -70 mV unless otherwise noted. Currents were filtered at 1 kHz using an eight-pole Bessel filter (-3 dB) and digitized ([…]) using an on-line data acquisition system (pClamp, Axon Instruments).
Drug solutions were applied to single neurons by pressure ejection (15 psi) from seven-barrel pipettes. Seven-barrel pressure pipettes were positioned approximately […] from the neuronal soma. Under these conditions, the drug solution in the pressure pipette rapidly and effectively replaces the solution surrounding the target neurons with less than 10% dilution (Choi, D. W., et al., Nature (Lond.) 269:342-344 (1977); Chan, C. Y., et al., Life Sci., 83:2061-2069 (1983); Chan, C. Y. and Farb, D. H., J. Neurosci., 5:2365-2373 (1985)). All drugs were obtained from Sigma, with the except of AMPA hydrobromide (Research Biochemicals) and steroids (Steraloids). Stock solutions of steroids were prepared in dimethyl sulfoxide, the final concentration of which was 0.5% (v/v). To obviate the possible effects of dimethyl sulfoxide on the relevant agonist-induced currents, all other drug solutions including NMDA, kainate, AMPA and external buffer (in the pressure pipette) also contained 0.5% dimethyl sulfoxide. […]

[1] = molecular target: T1, recombinant NMDA receptors (NR1100 and NR2A subunits) (Rattus norvegicus, UniProt P35439+Q00959); assay: Two electrode voltage-clamp of Xenopus oocytes expressing recombinant NMDA receptors; assay type: cell-based
T1 construct: expressed in transfected cells; host or cells: Xenopus laevis oocytes injected with in vitro transcribed mRNA
T1 sequence (Q00959 23-1464, other chains not shown): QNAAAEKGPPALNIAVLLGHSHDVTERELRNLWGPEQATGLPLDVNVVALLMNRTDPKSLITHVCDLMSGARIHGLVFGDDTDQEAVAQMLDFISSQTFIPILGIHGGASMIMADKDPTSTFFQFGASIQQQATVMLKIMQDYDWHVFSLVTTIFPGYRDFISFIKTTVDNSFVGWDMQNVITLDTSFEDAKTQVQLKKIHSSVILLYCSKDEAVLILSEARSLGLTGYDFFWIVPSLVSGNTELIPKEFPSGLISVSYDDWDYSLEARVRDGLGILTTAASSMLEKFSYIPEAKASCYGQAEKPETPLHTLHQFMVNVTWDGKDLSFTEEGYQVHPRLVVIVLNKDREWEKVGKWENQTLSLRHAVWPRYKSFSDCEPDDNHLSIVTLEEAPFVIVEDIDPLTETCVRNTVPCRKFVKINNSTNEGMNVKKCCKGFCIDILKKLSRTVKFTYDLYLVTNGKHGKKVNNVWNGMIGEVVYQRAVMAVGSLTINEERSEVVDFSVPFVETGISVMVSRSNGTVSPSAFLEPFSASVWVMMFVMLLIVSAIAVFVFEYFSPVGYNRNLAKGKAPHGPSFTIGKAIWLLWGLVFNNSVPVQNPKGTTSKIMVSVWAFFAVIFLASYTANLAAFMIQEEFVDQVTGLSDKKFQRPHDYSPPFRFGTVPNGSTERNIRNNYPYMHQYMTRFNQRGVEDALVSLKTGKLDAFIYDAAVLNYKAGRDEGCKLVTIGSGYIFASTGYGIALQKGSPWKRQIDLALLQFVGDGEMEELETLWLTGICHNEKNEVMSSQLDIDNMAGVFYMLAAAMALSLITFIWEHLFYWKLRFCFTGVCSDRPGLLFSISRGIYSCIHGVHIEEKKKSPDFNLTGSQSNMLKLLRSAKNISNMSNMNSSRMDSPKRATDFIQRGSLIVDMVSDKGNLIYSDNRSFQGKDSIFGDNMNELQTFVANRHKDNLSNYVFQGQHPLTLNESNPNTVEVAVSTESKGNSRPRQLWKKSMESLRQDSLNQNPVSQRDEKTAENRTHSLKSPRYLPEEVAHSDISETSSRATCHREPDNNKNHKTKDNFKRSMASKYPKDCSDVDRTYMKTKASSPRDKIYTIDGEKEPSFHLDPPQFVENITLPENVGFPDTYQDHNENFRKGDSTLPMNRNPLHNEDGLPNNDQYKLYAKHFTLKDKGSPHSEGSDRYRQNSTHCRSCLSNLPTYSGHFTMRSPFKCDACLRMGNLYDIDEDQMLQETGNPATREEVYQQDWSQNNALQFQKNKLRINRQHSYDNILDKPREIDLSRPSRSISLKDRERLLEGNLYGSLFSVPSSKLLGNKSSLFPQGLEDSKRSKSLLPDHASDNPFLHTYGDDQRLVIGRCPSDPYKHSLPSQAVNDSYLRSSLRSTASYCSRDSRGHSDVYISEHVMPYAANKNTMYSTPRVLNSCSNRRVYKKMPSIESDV
Procedure: RNA preparation. mRNA were prepared through in vitro transcription of NR1100 and NR2A cDNAs using the mMessage mMachine kit (Ambion, Tex.). NR1100 and NR2A clones were kindly provided by Dr. Zukin and Dr. Nakanishie.
Xenopus expression system. Female, oocyte positive Xenopus laevis frogs were purchased from Nasco, Inc. (WI). The frogs were kept on a 12/12 light-dark cycle and maintained on a diet of chopped calf liver every 3 days. Prior to surgery, frogs were anesthetized in a 0.15% Tricaine solution (Sigma, Mo.) for 30-45 minutes. Ovarian sections containing the follicular oocytes were removed through a lateral abdominal incision and were immediately placed in calcium-free ND96 solution (in mM):96 NaCl; 1 MgCl2; 2 KCl; 5 Hepes; 2.5 pyruvate (pH adjusted to 7.4 with NaOH). Following a 2 hr. incubation in 0.2% collagenase type II (Sigma, Mo.) at room temperature, individual defolliculated oocytes were transferred into 60×15 mm glass petri dishes containing ND96 solution (in mM): 96 NaCl; 1 MgCl2; 2 KCl; 1.8 CaCl2; 5 Hepes; 2.5 pyruvate (pH adjusted to 7.4 with NaOH). The isolated oocytes were maintained in an incubator at 18° C. On the following date, batches of 20-40 selected oocytes (Dumont stage V and VI) were injected with 50 nl of prepared RNA solution (0.5 ng of NR1 and 12 ng of NR2A mRNAs per oocyte) using an electronic microinjector (Drummond, Pa.). The injected oocytes were used for electrophysiological experiments following 4-10 day incubation at 18° C.
Electrical recording and drug application. The ion current recordings were obtained in two electrodes voltage-clamp mode using an Axoclamp-2A amplifier (Axon Instruments, Inc., CA). The microelectrodes were fabricated with a programmed puller (Sutter Instrument Co., CA) from glass capillaries (Dagan, Minn.) and filled with 3M KCl solution. The resistance of filled microelectrodes was in the range of 2.5-3.5 M.OMEGA.. The oocytes were clamped at a holding potential of -70 mV. The membrane current was filtered at 500 Hz and sampled at 100 Hz frequency. The drugs were applied using a gravity driven external perfusion system. The data acquisition and external perfusion control were done using SuperScopeII software package (GW Instruments, MA). All experiments were performed at room temperature of 22-24° C.
The degree of modulation of the amino acid response by steroids, the percent change, was defined at (I'/I-1)×100%, where I and I' are respectively the agonist-induced currents in the absence and presence of steroid. Throughout, results are expressed as mean±SEM; statistical comparison of groups was carried out using Student's t test.

AMPA receptors = assay: Whole cell patch clamp, AMPA-induced current in cultured chick spinal cord neurons; assay type: cell-based; conditions: 100 μM steroid; -70 mV
Procedure: as §1, §2

[2] = system: NMDA-induced seizure and death in mice; assay: NMDA-induced seizure and death (100 mg/kg NMDA challenge); assay type: in vivo; conditions: steroid 25 mg/kg i.p., DMSO 50%
Procedure: 5β3αHS (25 mg/kg, i.p.) protects mice from NMDA-induced death. None of the steroids tested altered the latency to NMDA-induced seizure. However, 100% of the animals that received 5β3αHS survived the 100 mg/kg NMDA challenge compared to 50% for DMSO, 75% for 5β3αS and E2 (3)HS, and 50% for E2 (17)HS.

[3] = system: NMDA-induced convulsion and mortality in mice; assay: NMDA-induced convulsion test (200 mg/kg NMDA); assay type: in vivo; conditions: mice, i.v. administration, FIG. 8
Procedure: Male CD-1 mice (Charles River Laboratories, Wilmington, Mass.) weighing 20-25 g were used for the NMDA-induced convulsion test. Mice were injected intraperitoneally with the test compound dissolved in DMSO or with vehicle. NMDA (200 mg/kg, i.p.) was injected either 2 minutes after intravenous injection of test compound or 20 minutes after intraperitoneal injection of test compound.

mice = assay: Behavioral observational assessment after i.p. steroid; assay type: in vivo; conditions: 25 mg/kg i.p., 30 min. after injection
Procedure: To test for behavioral effects, PS, 5β3αS, 5β3αHS, βE2 (17)HS, or βE2 (3)HS (7 mg/ml in DMSO) was administered to mice i.p. at 25 mg/kg (5 animals per drug group). Behavioral assessments were made 30 min. after injection using a comprehensive observational assessment of motor-affective responses, sensory-motor responses, posture, muscle tone, equilibration, CNS excitation, and autonomic function (Irwin, R. P., et al., NeuroSci. Lett., 141:30-44 (1968)). […] The latency to loss of righting reflex was 2.5±0.5 min., and the latency to regain the righting reflex was 83±11 min. The rapidity of onset argues that 5β3αHS readily crosses the blood brain barrier.

[4] = system: glutamate receptor-mediated spontaneous EPSCs in rat hippocampal neurons; assay: Spontaneous excitatory postsynaptic currents (EPSCs), whole-cell recording in cultured hippocampal neurons; assay type: cell-based
Procedure: Primary cultures of hippocampal neurons were prepared from embryonic day 18 rats. Cultured neurons were used in experiments 2-3 weeks after plating.
Spontaneous excitatory postsynaptic currents were recorded by the whole-cell variant of the patch clamp technique. The pipet solution usually contained (in mM) KCl 10, EGTA 11, sodium gluconate 3, potassium gluconate 140 and HEPES 10, adjusted to pH 7.2 with KOH. The bath solution contained (in mM) NaCl 150, KCl 4, CaCl2 1, and HEPES 10, adjusted to pH 7.2 with NaOH. Because NMDA-induced currents are subject to voltage-dependent block by extracellular Mg^2+, no magnesium salts were added to the bath solution. All records were made with the cell membrane potential clamped at -70 mV, which is very close to the Cl- equilibrium potential. Therefore, IPSCs are not expected to be observed and spontaneous activity should consist of EPSCs. The complete blockage of spontaneous activity by the co-application of the NMDA receptor antagonist APV and the non-NMDA receptor antagonist DNQX argues that the observed spontaneous activity is glutamate receptor-mediated.
Drug solutions were applied to single neurons by pressure ejection (15 psi) from 7-barrel pipets (tip opening ~3-5 μm) positioned ~50 μm from the neuronal soma. In all experiments, neurons received a 40s application of either steroid or steroid plus antagonist(s), followed by 10-20s pulse of external buffer solution.

[5] = 200 μM steroid in the absence of PS
[6] = 200 μM steroid in the presence of 200 μM PS

CC(=O)[C@H]1CC[C@H]2[C@@H]3CC[C@@H]4C[C@@H](OS(=O)(=O)O)CC[C@]4(C)[C@H]3CC[C@]12C [5β3βS, 3β-hydroxy-5β-pregnan-20-one sulfate]
inhibition of the 50 μM kainate-induced current (kainate receptors): 33%
inhibition of the NMDA response by extracellular steroid (NMDA receptor; in the absence of intracellular 5β3βS): 48±4%
inhibition of the NMDA response by extracellular steroid (NMDA receptor; in the presence of intracellular 5β3βS): 44±4%
inhibition of the response to 30 μM NMDA (NMDA receptor; 100 μM steroid applied with NMDA, holding potential -70 mV): 59%
inhibition of the 30 μM NMDA response with saturating glycine (NMDA receptor; 100 μM steroid, 10 μM glycine): did not significantly differ from that measured without added glycine
average inhibition of the NMDA response (NMDA receptor; 100 μM steroid, CsCl-containing intracellular solution, 2 cells): 49±5.0%
inhibition of the NMDA response (NMDA receptor; 100 μM steroid, in the presence of 100 μM spermine): 50±5%
inhibition of the peak NMDA response (NMDA receptor; [5]): 59±3%
effect of intracellular steroid on NMDA-induced currents (NMDA receptor; 200 μM steroid in the intracellular buffer): does not inhibit the NMDA-induced currents
inhibition of the peak NMDA response (NMDA receptor; [6]): 50±4%
inhibition of the NMDA response (NMDA receptor; after NEM treatment): 53±5%
inhibition of the NMDA response (NMDA receptor; in the presence of arachidonic acid): 49±5%
IC50 (NMDA receptor; in the absence of PS): 143 µM
IC50 (NMDA receptor; in the presence of 200 μM PS): 120 µM
direct response to steroid applied alone (NMDA receptor; steroid alone at greater than or equal to 100 μM, K+ current, not seen with CsCl intracellular solution): often induced a small outward current
inhibition of a near maximal NMDA response (200 μM) ([1]; 200 μM steroid): 54±8%
inhibition of the peak NMDA response [1, 5]: 46±8%
inhibition of the peak NMDA response [1, 6]: 54±5%
IC50 ([1]; IC50, in the absence of PS): 151 µM
IC50 ([1]; IC50, in the presence of 200 μM PS): 124 µM
inhibition of the 25 μM AMPA-induced current (AMPA receptors): 43%

C[C@]12CC[C@@H]3c4ccc(O)cc4CC[C@H]3[C@@H]1CC[C@@H]2OC(=O)CCC(=O)O [17βE(17)HS, 17β-estradiol-17-hemisuccinate]
animals that survived the 100 mg/kg NMDA challenge [2]: 50%
seizures and mortality induced by NMDA [3]: effective in blocking seizures and mortality
behavioral assessment (mice): very minor behavioral impairment

CC(=O)[C@H]1CC[C@H]2[C@@H]3CC=C4C[C@@H](OS(=O)(=O)O)CC[C@]4(C)[C@H]3C(=O)C[C@]12C [11-keto PS]
activation at 100 µM ([4]; Rattus norvegicus, Hippocampal neuron, 100 μM steroid, read-out: percentage potentiation of EPSCs): 19 ± 15%
effect on spontaneous EPSCs ([4]; cultures of rat hippocampal neurons): has no effect on EPSCs

C[C@]12CC[C@@H]3c4ccc(OC(=O)CCC(=O)O)cc4CC[C@H]3[C@@H]1CC[C@@H]2O [17βE(3)HS, 17β-estradiol-3-hemisuccinate]
animals that survived the 100 mg/kg NMDA challenge [2]: 75%
seizures and mortality induced by NMDA [3]: effective in blocking seizures and mortality
behavioral assessment (mice): very minor behavioral impairment
